Source: patent US20230094545A1, “S1P RECEPTOR MODULATORS” (AKAAL PHARMA PTY LTD, priority 2020, published 2023)

Legend:
[1] = tested on: kainic acid induced seizures; test: Kainic acid model of epilepsy; type: in vivo, Sprague Dawley rats
Experimental: In an animal model of epilepsy, Sprague Dawley rats (n=6) were treated with the compound of Formula I or vehicle, dosed 1 hour prior to kainic acid administration (10 mg/kg, IP). […] There was significant reduction in seizures (70%, p<0.005) in the compound of formula (I) treated group. The changes observed in the hippocampal region of control animals included, minimal to mild neuronal cell death which included vaculations in neuronal cells particularly at C3 and C1 regions proving the compound of Formula I is neuroprotective.

[2] = Topical treatment of atopic dermatitis patients; type: in vivo, human; settings: human, in vivo; by week 3, 60 mg daily topical; read-out: systemic exposure
Experimental: (§1) Atopic dermatitis patients were treated with the compound of Formula I@60 mg daily dosing as topical treatment for 28 consecutive days.

[3] = tested on: atopic dermatitis; test: Topical treatment of atopic dermatitis patients; type: in vivo, human
Experimental: as §1

Q: With `CCCOc1ccc(-c2nc(-c3ccc4oc(C(N)(CO)CO)cc4c3)no2)cc1Cl` [compound of formula (I)] as the compound, how does the reduction in seizures ([1]; dosed 1 hour prior to kainic acid, p<0.005) read?
A: The reduction in seizures was 70%.

Q: What about the “neuroprotection (hippocampal histology)” value ([1]; rat, in vivo) of the same compound?
A: Its value is “neuroprotective”.

Q: And the concentration at 3 week [2]?
A: Its concentration at 3 week is 1 to 2.5 ng/mL.

Q: What about the “EASI score and pruritus score” value ([3]; 60 mg daily topical, 28 days) of the same compound?
A: The value was “reduction compared to baseline”.

Q: And the absolute lymphocyte count ([3]; 60 mg daily topical, 28 days)?
A: Its absolute lymphocyte count is “no systemic change in the absolute lymphocyte count”.

Q: What about the tolerability ([3]; 60 mg daily topical, 28 days) of the same compound?
A: Its tolerability is “well tolerated”.

Q: And the lymphopenia ([3]; by week 3)?
A: Its lymphopenia is “no lymphopenia event”.
